Legend:
R4A binding to dsDNA = experiment: DNA ELISA, inhibition of R4A binding to dsDNA by fluid phase C1q; conditions: immobilized dsDNA
Method: (§1) ELISAs—Costar half-volume 96-well plates (Corning, N.Y.) were used for C1q ELISAs and Immulon 2HB 96-well plates (Milford, Mass.) were used for DNA ELISAs. C1q was purchased from Comptech (Tyler, Tex.) and adsorbed to 96-well plate (50 μg/ml) Plates were blocked with 2% BSA in PBS for 1 hour at RT. R4A antibody or IgG2b control immunoglobulin (MPC-11 hybridoma, ATCC, Manassas, Va.) was added for 1 hour at RT at various concentrations of NaCl. Cytokine ELISA was performed according to manufacturer's protocol (BD Biosciences, San Diego, Calif.). C1q collagen-tail of C1q was prepared as described in [21].

R4A binding to C1q = experiment: ELISA, inhibition of R4A binding to C1q by peptide
Method: as §1

Row | inhibition of R4A binding to dsDNA (R4A binding to dsDNA) | inhibition of R4A binding to C1q (R4A binding to C1q) | Substance
1 | inhibited |  | C1q: human complement C1q, purchased from Comptech
2 |  | inhibited | DWEYS [reference compound]
3 |  | inhibited | EADYG (fusion protein)

Reference: patent publication US9758557B2, “C1q peptides and uses thereof” (THE FEINSTEIN INSTITUTE FOR MEDICAL RESEARCH, priority 2013, dated 2017)
